Measured values taken from patent US20100113613A1, “CYCLOHEXANE POLYALCOHOL FORMULATION FOR TREATMENT OF DISORDERS OF PROTEIN AGGREGATION” (WARATAH PHARMACEUTICALS, priority 2006, published 2010).
Like-named read-outs stand apart in the source and are kept apart here.

What was measured:
in vivo [1] = settings: dog, po
Method: Plasma PK of a scyllo-cyclohexanhexyl in dogs was assessed after 14 days oral dosing of 15, 50 and 150 mg/kg, administered twice daily. As on Day 1 of this study Cmax and AUC values increased proportionally with dose level of scyllo-cyclohexanehexyl. However, dose-normalised exposures appeared to decrease with dose. This contrasts with positive trend observed after acute exposure. […] As for single doses, the scyllo-cyclohexanehexyl was absorbed rapidly, with tmax observed between 1.1 and 1.8 hours post-dose. […] Estimates of MRT were consistent. The Vdss and Cl/F values were similar for all dose levels.

[2] = CSF and plasma levels at end of 14 day repeat dose study in dogs; type: in vivo, dog; settings: dog, oral, after 14 days dosing; for concentration at 24 h: CSF, read-out: CSF level at 24 h; for concentration at 12 h: plasma, read-out: Plasma level at 12 h
Method: CSF was also collected from dogs at the end of the 14 day repeat study upon necropsy (approximately 24 hours after the final dose was administered). Levels of the scyllo-cyclohexanehexyl in CSF increased with dose and followed the profile observed in plasma.

in vivo [3] = settings: rat; for kel / Vd: 28 days
Method: Plasma PK of a scyllo-cyclohexanehexyl compound in rats was assessed after 28 days oral dosing of 15, 50 and 150 mg/kg, administered twice daily. […] Indeed, at this dose level, the Vdss, clearance and elimination rates appeared to be reduced with repeated dosing. […] As for single doses, the scyllo-cyclohexanehexyl was absorbed rapidly, with mean tmax observed between 1.2 and 1.3 hours post-dose. […] Estimates of MRT were consistent.

[4] = Single oral and intravenous dose pharmacokinetics, dose range-finding study in beagle dogs; type: in vivo, beagle dog; settings: for Tmax: po; for Vd: read-out: VdSS
Method: PK of single oral doses of the scyllo-cyclohexanhexyl was also investigated in a preliminary fashion in a dose range-finding study in 5 beagle dogs. […] The Cmax and AUC values increased proportionally with dose, consistent with observations in the larger study. Estimates of t½ ranged from 2 to 5 hours. Neither dose nor route of administration had any clear effect on t½, MRT, Cl/F or Vdss.

[5] = beagle, dog, plasma, dogs, single intravenous dose 80 mg/kg
[6] = beagle, dog, plasma, dogs, single intravenous dose 240 mg/kg
[7] = beagle, dog, plasma, dogs, single oral dose 20 mg/kg
[8] = beagle, dog, plasma, dogs, single oral dose 80 mg/kg
[9] = beagle, dog, plasma, dogs, single oral dose 240 mg/kg
[10] = dogs, single intravenous dose 80 mg/kg
[11] = dogs, single intravenous dose 240 mg/kg

- AUC(0-t) (in vivo [1]; 50 mg/kg): 232 ± 50.2 µg·h/mL
- CL/F (in vivo [1]; 50 mg/kg): 0.86 mL/min/kg
- Cmax (in vivo [1]; 50 mg/kg): 59400 ± 13000 ng/mL
- MRT (in vivo [1]; 50 mg/kg): 5.3 ± 1.2 h
- Tmax (in vivo [1]; 50 mg/kg): 1.1 ± 0.5 h
- VdSS (in vivo [1]; 50 mg/kg): 0.2726 ± 0.1217 L/kg
- half-life (in vivo [1]; 50 mg/kg): 3.8 ± 1.2 h
- AUC(0-inf) (in vivo [1]; 150 mg/kg): 557 ± 133 µg·h/mL
- AUC(0-t) (in vivo [1]; 150 mg/kg): 523 ± 123 µg·h/mL
- CL/F (in vivo [1]; 150 mg/kg): 1.2 mL/min/kg
- Cmax (in vivo [1]; 150 mg/kg): 121000 ± 26700 ng/mL
- MRT (in vivo [1]; 150 mg/kg): 4.6 ± 0.4 h
- Tmax (in vivo [1]; 150 mg/kg): 1.8 ± 0.4 h
- VdSS (in vivo [1]; 150 mg/kg): 0.3321 ± 0.0881 L/kg
- half-life (in vivo [1]; 150 mg/kg): 2.9 ± 0.6 h
- concentration at 24 h ([2]; Dose 30 mg/kg): 4000 ng/mL
- concentration at 24 h ([2]; Dose 100 mg/kg): 7500 ng/mL
- concentration at 24 h ([2]; Dose 300 mg/kg): 10900 ng/mL
- concentration at 12 h ([2]; Dose 30 mg/kg): 3600 ng/mL
- concentration at 12 h ([2]; Dose 100 mg/kg): 5800 ng/mL
- concentration at 12 h ([2]; Dose 300 mg/kg): 8200 ng/mL
- kel (in vivo [3]; 15 mg/kg): 0.16 ± 0.03 h⁻¹
- kel (in vivo [3]; 50 mg/kg): 0.21 ± 0.03 h⁻¹
- kel (in vivo [3]; 150 mg/kg): 0.22 ± 0.02 h⁻¹
- AUC(0-inf) (in vivo [3]; po, 15 mg/kg): 195 ± 71.7 µg·h/mL
- AUC(0-t) (in vivo [3]; po, 15 mg/kg): 161 ± 57.7 µg·h/mL
- CL/F at 28 days (in vivo [3]; po, 15 mg/kg): 2.9 mL/min/kg
- Cmax at 28 days (in vivo [3]; po, 15 mg/kg): 28500 ± 4900 ng/mL
- MRT at 28 days (in vivo [3]; po, 15 mg/kg): 6.7 ± 0.6 h
- Tmax (in vivo [3]; po, 15 mg/kg): 1.3 ± 0.5 h
- half-life at 28 days (in vivo [3]; po, 15 mg/kg): 4.4 ± 0.6 h
- Vd (in vivo [3]; po, 15 mg/kg): 1.14 L/kg
- AUC(0-inf) (in vivo [3]; po, 50 mg/kg): 298 ± 82.2 µg·h/mL
- AUC(0-t) (in vivo [3]; po, 50 mg/kg): 271 ± 70.7 µg·h/mL
- CL/F at 28 days (in vivo [3]; po, 50 mg/kg): 5.95 mL/min/kg
- Cmax at 28 days (in vivo [3]; po, 50 mg/kg): 59400 ± 8400 ng/mL
- MRT at 28 days (in vivo [3]; po, 50 mg/kg): 4.9 ± 0.8 h
- Tmax (in vivo [3]; po, 50 mg/kg): 1.2 ± 0.4 h
- half-life at 28 days (in vivo [3]; po, 50 mg/kg): 3.3 ± 0.5 h
- Vd (in vivo [3]; po, 50 mg/kg): 1.73 L/kg
- AUC(0-inf) (in vivo [3]; po, 150 mg/kg): 615 ± 129 µg·h/mL
- AUC(0-t) (in vivo [3]; po, 150 mg/kg): 573 ± 128 µg·h/mL
- CL/F at 28 days (in vivo [3]; po, 150 mg/kg): 8.41 mL/min/kg
- Cmax (in vivo [3]; po, 150 mg/kg): 171000 ± 79900 ng/mL
- MRT at 28 days (in vivo [3]; po, 150 mg/kg): 4.6 ± 0.8 h
- Tmax (in vivo [3]; po, 150 mg/kg): 1.2 ± 0.4 h
- half-life at 28 days (in vivo [3]; po, 150 mg/kg): 3.1 ± 0.3 h
- Vd (in vivo [3]; po, 150 mg/kg): 2.34 L/kg
- Tmax ([4]; beagle, dog, plasma, 20 mg/kg, dogs, single oral dose 20 mg/kg): 1.5 ± 0.6 h
- Tmax ([4]; beagle, dog, plasma, 80 mg/kg, dogs, single oral dose 80 mg/kg): 2 ± 1.2 h
- Tmax ([4]; beagle, dog, plasma, 240 mg/kg, beagle dogs, following an oral dose (20, 80 and 240 mg/kg)): 1.5 to 2 h
- Tmax ([4]; beagle, dog, plasma, 240 mg/kg, dogs, single oral dose 240 mg/kg): 2 ± 1.4 h
- bioavailability ([4]; beagle, dog, plasma, dogs, 80 mg/kg dose level, oral vs i.v.): > 90%
- AUC(0-inf) [4, 5]: 173 ± 9 µg·h/mL
- AUC(0-t) [4, 5]: 167 ± 7 µg·h/mL
- MRT [4, 5]: 4.6 ± 1.2 h
- Vd [4, 5]: 2.1 L/kg
- half-life ([4]; beagle, dog, plasma, dogs, single intravenous dose 80 mg/kg, read-out: t1/2 (converted)): 3.3 ± 0.3 h
- AUC(0-inf) [4, 6]: 248 ± 25 µg·h/mL
- AUC(0-t) [4, 6]: 244 ± 24 µg·h/mL
- MRT [4, 6]: 3.3 ± 0.5 h
- Vd [4, 6]: 3.22 L/kg
- half-life ([4]; beagle, dog, plasma, dogs, single intravenous dose 240 mg/kg, read-out: t1/2 (converted)): 2.3 ± 0.2 h
- AUC(0-inf) [4, 7]: 51.7 ± 15.7 µg·h/mL
- AUC(0-t) [4, 7]: 42.1 ± 8.4 µg·h/mL
- CL/F [4, 7]: 6.97 mL/min/kg
- Cmax [4, 7]: 5900 ± 3100 ng/mL
- MRT [4, 7]: 10.1 ± 5.9 h
- half-life ([4]; beagle, dog, plasma, dogs, single oral dose 20 mg/kg, read-out: t1/2 (converted)): 5 ± 3.9 h
- AUC(0-inf) [4, 8]: 246 ± 53 µg·h/mL
- AUC(0-t) [4, 8]: 243 ± 54 µg·h/mL
- CL/F [4, 8]: 5.63 mL/min/kg
- Cmax [4, 8]: 69000 ± 23500 ng/mL
- MRT [4, 8]: 4.1 ± 0.8 h
- half-life ([4]; beagle, dog, plasma, dogs, single oral dose 80 mg/kg, read-out: t1/2 (converted)): 2 ± 0.3 h
- AUC(0-inf) [4, 9]: 489 ± 99 µg·h/mL
- AUC(0-t) [4, 9]: 477 ± 94 µg·h/mL
- CL/F [4, 9]: 8.45 mL/min/kg
- Cmax [4, 9]: 89500 ± 27800 ng/mL
- MRT [4, 9]: 5.2 ± 0.2 h
- half-life ([4]; beagle, dog, plasma, dogs, single oral dose 240 mg/kg, read-out: t1/2 (converted)): 2 ± 0.4 h
- half-life ([4]; dog, plasma, other: oral and intravenous (range over both routes), beagle dogs, 20, 80 and 240 mg/kg p.o., 80 and 240 mg/kg i.v., read-out: t½): 2 to 5 h
- Cp0 [4, 10]: 87.2 ± 13.2 µg/mL
- kel [4, 10]: 0.21 ± 0.02 h⁻¹
- Cp0 [4, 11]: 127.9 ± 19.1 µg/mL
- kel [4, 11]: 0.30 ± 0.02 h⁻¹
- kel ([4]; dogs, single oral dose 20 mg/kg): 0.2 ± 0.2 h⁻¹
- kel ([4]; dogs, single oral dose 80 mg/kg): 0.4 ± 0.1 h⁻¹
- kel ([4]; dogs, single oral dose 240 mg/kg): 0.4 ± 0.1 h⁻¹
Structure (SMILES): OC1C(O)C(O)C(O)C(O)C1O (centres unmarked) [AZD-103, scyllo-inositol]
